≈ marks a conversion by molar mass, not a printed value. Structures can show the parent of a compound that is named as a salt. Where two headings read alike, the source gives them in different places. Blank lines part the entries; values can stand above or below the compound they belong to.
Experiments:
[1] = Solubility in aqueous solutions (Example 10); format: physicochemical; conditions: for Solubility in water: Table 12; for solubility: thermodynamic from solid, read-out: Compound 1 Solubility; for Increase in water solubility: relative to Compound 1 as-received (0.0006 mg/mL)
Procedure: Crystalline and amorphous Compound 1/polymer formulation solubility was determined in different aqueous media (Tables 8A and 8B).
As mentioned earlier, the high solubility of the Compound 1 sodium salt most probably resulted from the conversion of the Compound 1 to its ionized form. In relation to crystalline Compound 1 (as-received sample), formulations containing amorphous form (Tables 11A and 11B) were more soluble than crystalline form under all studied conditions.

[2] = Solubility screening in solvents (Example 2); format: physicochemical; conditions: thermodynamic from solid, read-out: Compound 1 Solubility; for solubility at 12 h: 12 h room temperature
Procedure: Before carrying out spray drying experiments, a solvent screening was performed to determine potential solvent that will allow sufficient concentration of Compound 1 in spray drying solution. Approximately 50 mg of Compound 1 was added to 100 mL of each evaluated solvent until visual observation of solution saturation. […]

[3] = Solubility in USP simulated gastric and intestinal fluids (Example 11); format: physicochemical; conditions: SGF pH 1.2 and SIF pH 6.8, 37° C.
Procedure: The solubilization profile was obtained of various compositions in USP Simulated Gastric Fluid (SGF) and USP Simulated Intestinal Fluid (SIF) with pH 1.2 and 6.8, respectively. […] The concentration of the solution was based on the hypothesis that the test should simulate a dissolution test for a 100 mg dose strength tablet or capsule in 900 ml of dissolution media.
The solubility was tested for the crystalline compound 1 with a purity of 98.9%, and for the amorphous compositions of Examples 6M and 6O (Lots 031 and 033). The following procedure was followed: • A shaking water bath was filled and water temperature left to equilibrate to 37° C. for 24 hours. • USP simulated gastric fluid was prepared as described in the UPS 31, Solutions: Test solutions. • USP simulated intestinal fluid was prepared as described in the UPS 31, Solutions: Test solutions. • The equivalent of 12.5 mg of Compound 1 was weighed and transferred into a 125 mL Erlenmeyer flask, with 100 mL of medium. […]
The amount of dissolved material was determined with respect to a standard and is reported as the percentage of material dissolved with respect to the standard as well as in absolute mg/ml.

animal models of asthma = conditions: in vivo; cited from earlier work
[4] = test system: moderate persistent asthma; conditions: Barnes et al., European Respiratory Journal 34, suppl. 53, 2009; cited from earlier work

Solubility in water [1]: 15370 µg/mL
Compound 1 Solubility ([1]; Water): 15370 µg/mL
solubility ([1]; Water + 1% SDS, aqueous with cosolvent or surfactant or cyclodextrin, Water + 1% SDS): > 30000 µg/mL
solubility ([1]; Water + 1% Tween 20, aqueous with cosolvent or surfactant or cyclodextrin, Water + 1% Tween 20): > 26000 µg/mL
solubility ([1]; Water + 1% Tween 80, aqueous with cosolvent or surfactant or cyclodextrin, Water + 1% Tween 80): > 21000 µg/mL
Compound 1 Solubility ([1]; pH 1.0): 3.6 µg/mL
Compound 1 Solubility ([1]; pH 4.5): 2605 µg/mL
solubility ([1]; pH 6.8 + 1% HTAB, pH 6.8, aqueous with cosolvent or surfactant or cyclodextrin, pH 6.8 + 1% HTAB): 4110 µg/mL
solubility ([1]; pH 6.8 + 1% Tween 20, pH 6.8, aqueous with cosolvent or surfactant or cyclodextrin, pH 6.8 + 1% Tween 20): 128 µg/mL
solubility ([1]; pH 6.8 + 1% Tween 80, pH 6.8, aqueous with cosolvent or surfactant or cyclodextrin, pH 6.8 + 1% Tween 80): 3220 µg/mL
Compound 1 Solubility ([1]; pH 6.8 K): 8554 µg/mL
solubility ([1]; pH 6.8 Na (sodium buffer), pH 6.8, aqueous buffer, pH 6.8 Na): 2490 µg/mL
Compound 1 Solubility ([1]; pH 8.0 K): 5571 µg/mL
Compound 1 Solubility ([1]; pH 8.0 Na): 1744 µg/mL
Increase in water solubility [1]: 2561667%
SMILES: Cc1c(Cc2ccc3ccccc3n2)c2cc(F)ccc2n1CC(=O)O [Compound 1 sodium salt]

solubility ([2]; aqueous buffer, Sodium hydroxide 0.5N, at 45° C.): > 90000 µg/mL
solubility at 12 h ([2]; aqueous buffer, Tris(hydroxymethyl) aminoethane (1% w/v)): < 500 µg/mL
solubility at 12 h ([2]; aqueous with cosolvent or surfactant or cyclodextrin, DMSO/H2O (50/50 v/v)): < 500 µg/mL
solubility at 12 h ([2]; aqueous with cosolvent or surfactant or cyclodextrin, DMSO/H2O (75/25 v/v)): 2000 to 2500 µg/mL (≈ 5740 to 7180 µM)
solubility at 12 h ([2]; aqueous with cosolvent or surfactant or cyclodextrin, Hexadecyltrimethylammonium (0.05% w/v)): < 500 µg/mL
solubility at 12 h ([2]; aqueous with cosolvent or surfactant or cyclodextrin, Sodium dodecyl sulfate (2% w/v)): < 500 µg/mL
solubility at 12 h ([2]; aqueous with cosolvent or surfactant or cyclodextrin, Span 80 (1% v/v)): < 500 µg/mL
solubility at 12 h ([2]; aqueous with cosolvent or surfactant or cyclodextrin, Tween 80 (1% v/v)): < 500 µg/mL
solubility at 12 h ([2]; organic solvent or mixture, Carbon tetrachloride): < 500 µg/mL
solubility at 12 h ([2]; organic solvent or mixture, Chloroform): < 500 µg/mL
solubility at 12 h ([2]; organic solvent or mixture, DMSO/DCM (50/50 v/v)): 1000 to 1500 µg/mL (≈ 2870 to 4310 µM)
solubility at 12 h ([2]; organic solvent or mixture, DMSO/DCM (75/25 v/v)): 2500 to 3000 µg/mL (≈ 7180 to 8610 µM)
solubility at 12 h ([2]; organic solvent or mixture, DMSO/Ethanol (50/50 v/v)): 500 to 1000 µg/mL (≈ 1440 to 2870 µM)
solubility at 12 h ([2]; organic solvent or mixture, DMSO/Ethanol (75/25 v/v)): 500 to 1000 µg/mL (≈ 1440 to 2870 µM)
solubility at 12 h ([2]; organic solvent or mixture, Dichloromethane (DCM)): < 500 µg/mL
solubility at 12 h ([2]; organic solvent or mixture, Dimethyl sulfoxide (DMSO)): 5500 to 6000 µg/mL (≈ 15800 to 17200 µM)
solubility at 12 h ([2]; organic solvent or mixture, Toluene): < 500 µg/mL
solubility at 12 h ([2]; Purified water): < 500 µg/mL
Solubility in water [1]: 0.6 µg/mL (≈ 1.72 µM)
Compound 1 Solubility ([1]; Water): 0.6 µg/mL
solubility ([1]; aqueous medium pH 1.0, pH 1, simulated gastric fluid, pH 1.0): 2.1 µg/mL (≈ 6.03 µM)
Compound 1 Solubility ([1]; pH 4.5): 1.9 µg/mL
Compound 1 Solubility ([1]; pH 6.8 K): 0.3 µg/mL
Compound 1 Solubility ([1]; pH 8.0 K): 0.8 µg/mL
Compound 1 Solubility ([1]; pH 8.0 Na): 0.3 µg/mL
solubility in SGF and SIF [3]: very poor solubility
SMILES: Cc1c(Cc2ccc3ccccc3n2)c2cc(F)ccc2n1CC(=O)O [Compound 1, (5-Fluoro-2-methyl-3-quinolin-2-ylmethyl-indol-1-yl)-acetic acid]
efficacy in animal models of asthma (animal models of asthma): effective
efficacy in a clinical trial with human asthma patients [4]: effective

Solubility in water [1]: 16870 µg/mL
Compound 1 Solubility ([1]; Water): 16870 µg/mL
Compound 1 Solubility ([1]; Water + 1% SDS): >17000 µg/mL
Compound 1 Solubility ([1]; Water + 1% Tween 20): >22000 µg/mL
Compound 1 Solubility ([1]; Water + 1% Tween 80): >14000 µg/mL
Compound 1 Solubility ([1]; pH 1.0): 9.1 µg/mL
Compound 1 Solubility ([1]; pH 4.5): 5 µg/mL
Compound 1 Solubility ([1]; pH 6.8 + 1% HTAB): 3597 µg/mL
Compound 1 Solubility ([1]; pH 6.8 + 1% Tween 20): 162.3 µg/mL
Compound 1 Solubility ([1]; pH 6.8 + 1% Tween 80): 226 µg/mL
Compound 1 Solubility ([1]; pH 6.8 K): 0.2 µg/mL
Compound 1 Solubility ([1]; pH 6.8 Na): 0.6 µg/mL
Compound 1 Solubility ([1]; pH 8.0 K): 2740 µg/mL
Compound 1 Solubility ([1]; pH 8.0 Na): 1782 µg/mL
Increase in water solubility [1]: 2811667%
SMILES: Cc1c(Cc2ccc3ccccc3n2)c2cc(F)ccc2n1CC(=O)[O-].[Na+] [Lot 002]

Reference: US8703956B2, “Amorphous (5-fluoro-2-methyl-3-quinolin-2-ylmethyl-indol-1-yl)-acetic acid” (Atopix Therapeutics Limited, priority 2011, dated 2014)
